In patent US6737383B1, “Herbicidal oxadiazolidines” (priority 1999, dated 2004):

Assays:
[1] = tested on: cocklebur; assay: Test B pre/postemergence cocklebur; type: in vivo, Xanthium strumarium
Procedure, shortened: (§1)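 Response is a visual 0-to-10 score relative to untreated plants, where 0 means no effect and 10 means complete control, taken twelve to sixteen days after application. Treatments went onto soil at planting and onto foliage of 1- to 4-leaf plants, using a surfactant-containing non-phytotoxic solvent.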

[2] = tested on: crabgrass; assay: Test B pre/postemergence crabgrass; type: in vivo, Digitaria sanguinalis
Procedure, shortened: as §1

[3] = tested on: corn; assay: Test B pre/postemergence corn; type: in vivo, Zea mays
Procedure, shortened: as §1

[4] = tested on: surinam grass; assay: Test B pre/postemergence surinam grass; type: in vivo, Brachiaria decumbens
Procedure, shortened: as §1

[5] = Preemergence, Rate 62 g/ha, scale of 0 to 10 where 0 is no effect and 10 is complete control
[6] = Preemergence, Rate 250 g/ha, scale of 0 to 10 where 0 is no effect and 10 is complete control
[7] = Preemergence, Rate 500 g/ha, scale of 0 to 10 where 0 is no effect and 10 is complete control
[8] = Rate 62 g/ha, Postemergence, scale of 0 to 10 where 0 is no effect and 10 is complete control
[9] = Rate 125 g/ha, Postemergence, scale 0 to 10
[10] = Rate 125 g/ha, Preemergence, scale of 0 to 10 where 0 is no effect and 10 is complete control
[11] = Rate 500 g/ha, Postemergence, scale 0 to 10, 0 no effect, 10 complete control
[12] = Preemergence, Rate 250 g/ha, scale 0 to 10, 0 is no effect, 10 is complete control
[13] = Rate 125 g/ha, Postemergence, scale 0 (no effect) to 10 (complete control)
[14] = Postemergence, Rate 62 g/ha, scale of 0 to 10, 0 is no effect, 10 is complete control
[15] = Postemergence, Rate 125 g/ha, scale 0 to 10, 0 is no effect, 10 is complete control
[16] = Postemergence, Rate 500 g/ha, scale of 0 to 10 where 0 is no effect and 10 is complete control
[17] = Preemergence, Rate 62 g/ha, scale 0 to 10 (0 no effect, 10 complete control)
[18] = Preemergence, Rate 125 g/ha, scale 0 to 10, 0 is no effect, 10 is complete control
[19] = Rate 250 g/ha, Postemergence, scale of 0 to 10 where 0 is no effect and 10 is complete control
[20] = Rate 500 g/ha, Postemergence, scale 0 to 10
[21] = Postemergence, Rate 62 g/ha, scale 0 to 10, 0 is no effect, 10 is complete control
[22] = Postemergence, Rate 125 g/ha, scale of 0 to 10 where 0 is no effect and 10 is complete control
[23] = Postemergence, Rate 250 g/ha, scale of 0 to 10, 0 is no effect, 10 is complete control
[24] = Preemergence, Rate 125 g/ha, scale of 0 to 10 where 0 is no effect and 10 is complete control
[25] = Preemergence, Rate 250 g/ha, scale 0 to 10 (0 no effect, 10 complete control)

How did the “Cocklebur plant response rating” value [1, 5] turn out when CC(C)N(C(=O)n1oc(=O)n(-c2cccnc2)c1=O)c1ccccc1 [Compound 235] was run?
Its value is 0.

And the “Cocklebur plant response rating” value [1, 6]?
The value was 0.

And the “Plant response rating, Cocklebur” value [1, 7]?
The value was 0.

And the “Cocklebur plant response rating” value [1, 8]?
The value was 0.

What about the “Cocklebur plant response rating” value [1, 9] of the same compound?
The value was 0.

And the “Cocklebur plant response rating” value [1, 10]?
Its value is 0.

And the “Plant response rating (0 to 10; 0 is no effect, 10 is complete control), Cocklebur” value ([1]; Rate 250 g/ha, Postemergence)?
Its value is 0.

What about the “Cocklebur plant response rating” value [1, 11] of the same compound?
Its value is 0.

And the “Crabgrass plant response rating” value [2, 5]?
Its value is 0.

What about the “Crabgrass plant response rating” value [2, 6] of the same compound?
Its value is 0.

And the “Plant response rating, Crabgrass” value [2, 7]?
Its value is 0.

And the “Crabgrass plant response rating” value [2, 8]?
The value was 0.

What about the “Crabgrass plant response rating” value [2, 9] of the same compound?
Its value is 0.

What about the “Crabgrass plant response rating” value [2, 10] of the same compound?
The value was 0.

And the “Plant response rating (0 to 10; 0 is no effect, 10 is complete control), Crabgrass” value ([2]; Rate 250 g/ha, Postemergence)?
The value was 0.

And the “Crabgrass plant response rating” value [2, 11]?
Its value is 0.

What about the “Corn plant response rating” value [3, 5] of the same compound?
Its value is 0.

And the “Corn plant response rating” value [3, 6]?
Its value is 0.

What about the “Plant response rating, Corn” value [3, 7] of the same compound?
The value was 0.

And the “Corn plant response rating” value [3, 8]?
The value was 0.

And the “Corn plant response rating” value [3, 9]?
Its value is 0.

What about the “Corn plant response rating” value [3, 10] of the same compound?
The value was 0.

What about the “Plant response rating (0 to 10; 0 is no effect, 10 is complete control), Corn” value ([3]; Rate 250 g/ha, Postemergence) of the same compound?
The value was 0.

What about the “Corn plant response rating” value [3, 11] of the same compound?
The value was 0.

And the “B. signalgrass plant response rating” value [4, 5]?
Its value is 0.

And the “B. signalgrass plant response rating” value [4, 12]?
The value was 0.

And the “Plant response rating, B. signalgrass” value [4, 7]?
The value was 0.

What about the “B. signalgrass plant response rating” value [4, 8] of the same compound?
Its value is 0.

And the “B. signalgrass plant response rating” value [4, 13]?
Its value is 0.

What about the “B. signalgrass plant response rating” value [4, 10] of the same compound?
The value was 0.

What about the “Plant response rating (0 to 10; 0 is no effect, 10 is complete control), B. signalgrass” value ([4]; Rate 250 g/ha, Postemergence) of the same compound?
Its value is 0.

And the “B. signalgrass plant response rating” value [4, 11]?
The value was 0.

For CC(C)N(C(=O)n1oc(=O)n(C(C)C(=O)c2ccccc2)c1=O)c1ccccc1 (centres unmarked) [Compound 570], which “Cocklebur plant response rating” value [1, 14] is on record?
Its value is 0.

And the “Cocklebur plant response rating” value [1, 15]?
The value was 0.

And the “Plant response rating, Cocklebur” value [1, 16]?
Its value is 0.

What about the “Cocklebur plant response rating” value [1, 17] of the same compound?
The value was 0.

And the “Cocklebur plant response rating” value [1, 18]?
Its value is 0.

And the “Cocklebur plant response rating (0 to 10 scale)” value ([1]; Preemergence, Rate 250 g/ha)?
The value was 0.

What about the “Cocklebur plant response rating” value [1, 7] of the same compound?
Its value is 0.

What about the “Plant response rating, Cocklebur” value [1, 19] of the same compound?
The value was 0.

And the “Crabgrass plant response rating” value [2, 14]?
Its value is 0.

What about the “Crabgrass plant response rating” value [2, 15] of the same compound?
The value was 0.

And the “Plant response rating, Crabgrass” value [2, 16]?
The value was 0.

And the “Crabgrass plant response rating” value [2, 17]?
Its value is 9.

What about the “Crabgrass plant response rating” value [2, 18] of the same compound?
Its value is 9.

And the “Crabgrass plant response rating (0 to 10 scale)” value ([2]; Preemergence, Rate 250 g/ha)?
The value was 9.

And the “Crabgrass plant response rating” value [2, 7]?
The value was 10.

And the “Plant response rating, Crabgrass” value [2, 19]?
The value was 0.

What about the “Corn plant response rating” value [3, 14] of the same compound?
The value was 0.

What about the “Corn plant response rating” value [3, 15] of the same compound?
The value was 0.

And the “Plant response rating, Corn” value [3, 16]?
Its value is 0.

What about the “Corn plant response rating” value [3, 17] of the same compound?
The value was 0.

And the “Corn plant response rating” value [3, 18]?
The value was 0.

What about the “Corn plant response rating (0 to 10 scale)” value ([3]; Preemergence, Rate 250 g/ha) of the same compound?
Its value is 0.

What about the “Corn plant response rating” value [3, 7] of the same compound?
The value was 0.

And the “Plant response rating, Corn” value [3, 19]?
Its value is 0.

And the “B. signalgrass plant response rating” value [4, 14]?
The value was 0.

And the “B. signalgrass plant response rating” value [4, 15]?
The value was 0.

And the “Plant response rating, B. signalgrass” value [4, 16]?
Its value is 0.

What about the “B. signalgrass plant response rating” value [4, 17] of the same compound?
The value was 0.

And the “B. signalgrass plant response rating” value [4, 18]?
The value was 0.

What about the “B. signalgrass plant response rating (0 to 10 scale, 0 is no effect, 10 is complete control)” value ([4]; Preemergence, Rate 250 g/ha) of the same compound?
Its value is 0.

What about the “B. signalgrass plant response rating” value [4, 7] of the same compound?
Its value is 0.

What about the “Plant response rating, B. signalgrass” value [4, 19] of the same compound?
The value was 0.

Which results are given for CC(C)N(C(=O)n1oc(=O)n(CC=Cc2ccccc2)c1=O)c1ccc(F)cc1 [Compound 210]?
Cocklebur plant response rating [1, 5]: 0; Cocklebur plant response rating [1, 12]: 0; Plant response rating, Cocklebur [1, 7]: 0; Cocklebur plant response rating [1, 8]: 0; Cocklebur plant response rating [1, 9]: 0; Cocklebur plant response rating [1, 10]: 0; Plant response rating (0 to 10; 0 is no effect, 10 is complete control), Cocklebur ([1]; Rate 250 g/ha, Postemergence): 0; Cocklebur plant response rating [1, 20]: 2; Crabgrass plant response rating [2, 5]: 0; Crabgrass plant response rating [2, 12]: 3; Plant response rating, Crabgrass [2, 7]: 8; Crabgrass plant response rating [2, 8]: 0; Crabgrass plant response rating [2, 9]: 0; Crabgrass plant response rating [2, 10]: 0; Plant response rating (0 to 10; 0 is no effect, 10 is complete control), Crabgrass ([2]; Rate 250 g/ha, Postemergence): 0; Crabgrass plant response rating [2, 20]: 0; Corn plant response rating [3, 5]: 0; Corn plant response rating [3, 12]: 0; Plant response rating, Corn [3, 7]: 0; Corn plant response rating [3, 8]: 0; Corn plant response rating [3, 9]: 0; Corn plant response rating [3, 10]: 0; Plant response rating (0 to 10; 0 is no effect, 10 is complete control), Corn ([3]; Rate 250 g/ha, Postemergence): 0; Corn plant response rating [3, 20]: 0; B. signalgrass plant response rating [4, 5]: 0; B. signalgrass plant response rating [4, 12]: 0; Plant response rating, B. signalgrass [4, 7]: 0; B. signalgrass plant response rating [4, 8]: 0; B. signalgrass plant response rating [4, 13]: 0; B. signalgrass plant response rating [4, 10]: 0; Plant response rating (0 to 10; 0 is no effect, 10 is complete control), B. signalgrass ([4]; Rate 250 g/ha, Postemergence): 0; B. signalgrass plant response rating [4, 11]: 0

COCCn1c(=O)on(C(=O)N(c2ccccc2)C(C)C)c1=O [Compound 631] was tested. Which “Plant response rating, Cocklebur” value [1, 21] did it give?
Its value is 0.

And the “Plant response rating, Cocklebur” value [1, 22]?
The value was 0.

And the “Cocklebur plant response rating” value [1, 23]?
The value was 0.

What about the “Plant response rating, Cocklebur” value [1, 16] of the same compound?
The value was 2.

And the “Cocklebur plant response rating” value [1, 17]?
The value was 0.

What about the “Cocklebur plant response rating” value [1, 24] of the same compound?
The value was 0.

And the “Plant response rating, Cocklebur” value [1, 25]?
The value was 0.

And the “Plant response rating, Cocklebur” value [1, 7]?
The value was 2.

What about the “Plant response rating, Crabgrass” value [2, 21] of the same compound?
The value was 8.

What about the “Plant response rating, Crabgrass” value [2, 22] of the same compound?
Its value is 9.

What about the “Crabgrass plant response rating” value [2, 23] of the same compound?
Its value is 9.

And the “Plant response rating, Crabgrass” value [2, 16]?
Its value is 9.

What about the “Crabgrass plant response rating” value [2, 17] of the same compound?
The value was 7.

What about the “Crabgrass plant response rating” value [2, 24] of the same compound?
The value was 7.

What about the “Plant response rating, Crabgrass” value [2, 25] of the same compound?
The value was 9.

And the “Plant response rating, Crabgrass” value [2, 7]?
The value was 9.

And the “Plant response rating, Corn” value [3, 21]?
Its value is 5.

And the “Plant response rating, Corn” value [3, 22]?
Its value is 5.

And the “Corn plant response rating” value [3, 23]?
Its value is 6.

What about the “Plant response rating, Corn” value [3, 16] of the same compound?
The value was 8.

And the “Corn plant response rating” value [3, 17]?
Its value is 5.

What about the “Corn plant response rating” value [3, 24] of the same compound?
Its value is 6.

And the “Plant response rating, Corn” value [3, 25]?
The value was 8.

And the “Plant response rating, Corn” value [3, 7]?
Its value is 9.

What about the “Plant response rating, B. signalgrass” value [4, 21] of the same compound?
Its value is 1.

And the “Plant response rating, B. signalgrass” value [4, 22]?
Its value is 3.

And the “B. signalgrass plant response rating” value [4, 23]?
The value was 6.

And the “Plant response rating, B. signalgrass” value [4, 16]?
Its value is 8.

What about the “B. signalgrass plant response rating” value [4, 17] of the same compound?
The value was 6.

And the “B. signalgrass plant response rating” value [4, 24]?
The value was 7.

What about the “Plant response rating, B. signalgrass” value [4, 25] of the same compound?
The value was 10.

What about the “Plant response rating, B. signalgrass” value [4, 7] of the same compound?
Its value is 10.
